This passage reports inhibition and IC50 results from patent US9102669B2, “Substituted piperidinyl-pyridazinyl derivatives useful as SCD 1 inhibitors” (Janssen Pharmaceutica NV, priority 2011, dated 2015).

The target in assay [1] is SCD1 (Rattus norvegicus (Rat), UniProt P07308). The experiment in a line: SCD1 enzymatic assay in rat liver microsomes (RLM). The assay is classed as biochemical. To be noted: rat liver microsomes; for inhibition at 1 µM: 1 μM test compound, read-out: % Inh.@ 1 μM. The essentials: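 Microsomes from livers of Sprague Dawley rats after fast/fat-free re-feeding cycles (10 μg per reaction) were incubated 2 h at room temperature with 20 μM stearoyl-CoA plus ^3H-stearoyl-CoA (2 μCi/mL), ATP, CoA, NADH and glutathione in 0.1 M K-phosphate, with compound. Reactions were acid-stopped and charcoal-treated; radioactivity was counted and fitted to a sigmoidal dose-response curve.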

Assay [2] deals with SCD1 (Homo sapiens (Human), UniProt O00767). The experiment in a line: SCD1 13C-palmitic acid assay in A431 cells. The assay is classed as cell-based. To be noted: read-out: A431 cells 13C-PA IC50. Put shortly:
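A431 cells with 0.05 mg/mL human insulin in 0.1% fatty-acid-free BSA assay medium; 4 h incubation at 37 °C before KOH saponification with D4-palmitate internal standard.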

Molecules are shown by their SMILES. “And” between values parts separate entries of the source, which are not always exact repeats. Equal values may be shown once. Some results are limits rather than exact numbers.

Sequence of SCD1 (Homo sapiens (Human), UniProt O00767) (O00767 whole entry): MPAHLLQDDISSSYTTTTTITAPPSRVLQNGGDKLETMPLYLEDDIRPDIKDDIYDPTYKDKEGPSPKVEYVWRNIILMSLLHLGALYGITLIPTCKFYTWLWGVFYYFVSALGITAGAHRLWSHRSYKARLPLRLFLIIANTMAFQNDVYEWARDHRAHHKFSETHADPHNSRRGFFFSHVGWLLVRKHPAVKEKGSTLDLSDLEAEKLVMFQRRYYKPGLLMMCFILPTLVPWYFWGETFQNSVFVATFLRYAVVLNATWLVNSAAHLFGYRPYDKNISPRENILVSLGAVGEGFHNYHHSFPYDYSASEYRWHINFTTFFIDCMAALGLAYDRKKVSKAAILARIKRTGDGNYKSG
Sequence of SCD1 (Rattus norvegicus (Rat), UniProt P07308) (P07308 whole entry): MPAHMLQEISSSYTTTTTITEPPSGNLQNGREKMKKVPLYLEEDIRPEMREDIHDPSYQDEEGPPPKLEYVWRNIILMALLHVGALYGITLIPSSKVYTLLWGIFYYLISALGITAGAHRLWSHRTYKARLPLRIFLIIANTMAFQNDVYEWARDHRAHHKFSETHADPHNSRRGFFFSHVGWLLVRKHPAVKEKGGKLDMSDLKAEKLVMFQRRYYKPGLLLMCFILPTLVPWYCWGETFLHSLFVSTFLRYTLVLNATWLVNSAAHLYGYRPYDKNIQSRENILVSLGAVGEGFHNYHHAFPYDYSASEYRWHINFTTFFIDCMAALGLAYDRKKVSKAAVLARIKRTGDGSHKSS

As to `Cn1cc(-c2ccc(N3CCC(n4ncc5c(Cl)cccc54)CC3)nn2)cn1` [compound 61, 4-chloro-1-(1-(6-(1-methyl-1H-pyrazol-4-yl)pyridazin-3-yl)piperidin-4-yl)-1H-indazole], in assay [1], the inhibition at 1 µM amounted to 101% and the IC50 stood at 15 nM. Also, the concentration for half-maximal inhibition (IC50) in assay [2] stood at 17 nM.

As to `NC(=O)Cn1cc(-c2ccc(N3CCC(N4CCc5ccc(F)cc54)CC3)nn2)cn1` [compound 69, 2-(4-(6-(4-(6-fluoroindolin-1-yl)piperidin-1-yl)pyridazin-3-yl)-1H-pyrazol-1-yl)acetamide], in assay [1], the inhibition at 1 µM was 68% and the midpoint of inhibition, the IC50, lay at 387 nM. The half-inhibitory concentration (IC50) in assay [2] amounted to 559 nM.

In the case of `Cn1cc(-c2ccc(N3CCC(n4ncc5c(F)cccc54)CC3)nn2)cn1` [compound 70, 4-fluoro-1-(1-(6-(1-methyl-1H-pyrazol-4-yl)pyridazin-3-yl)piperidin-4-yl)-1H-indazole], in assay [1], the inhibition at 1 µM was 94% and the IC50 was determined as 68 nM. Moreover, the IC50 in assay [2] was determined as 82 nM.

`Fc1ccc2c(c1)N(C1CCN(c3ccc(-c4cnn(CCN5CCOCC5)c4)nn3)CC1)CC2` [compound 71, 4-(2-(4-(6-(4-(6-fluoroindolin-1-yl)piperidin-1-yl)pyridazin-3-yl)-1H-pyrazol-1-yl)ethyl)morpholine]: in assay [1], the inhibition at 1 µM turned out to be 71% and 275 nM corresponded to half-maximal inhibition (IC50). For the same compound, the IC50 in assay [2] is > 1000 nM and 160 nM.

Regarding `Cn1cc(-c2ccc(N3CCC(n4ncc5cc(F)ccc54)CC3)nn2)cn1` [compound 73, 5-fluoro-1-(1-(6-(1-methyl-1H-pyrazol-4-yl)pyridazin-3-yl)piperidin-4-yl)-1H-indazole], in assay [1], the inhibition at 1 µM turned out to be 86% and half-maximal inhibition (IC50) required 145 nM. In addition, the IC50 in assay [2] came to 262 nM.

`Cn1cc(-c2ccc(N3CCC(n4ncc5ccc(Cl)cc54)CC3)nn2)cn1` [compound 74, 6-chloro-1-(1-(6-(1-methyl-1H-pyrazol-4-yl)pyridazin-3-yl)piperidin-4-yl)-1H-indazole]: in assay [1], the inhibition at 1 µM was determined as 96% and the half-maximal inhibitory concentration (IC50) is 16 nM. Moreover, the IC50 in assay [2] was 22 nM.

In the case of `CCOCCn1cc(-c2ccc(N3CCC(c4noc5ccc(F)cc45)CC3)nn2)cn1` [compound 75, 3-(1-(6-(1-(2-ethoxyethyl)-1H-pyrazol-4-yl)pyridazin-3-yl)piperidin-4-yl)-5-fluorobenzo[d]isoxazole], in assay [1], the inhibition at 1 µM amounted to 98% and half-maximal inhibition (IC50) was put at 21 nM. Also, in assay [2], the IC50 was found to be 81 nM.

Regarding `Fc1ccc2c(c1)N(C1CCN(c3ccc(-c4cn[nH]c4)nn3)CC1)CC2` [compound 77, 1-(1-(6-(1H-pyrazol-4-yl)pyridazin-3-yl)piperidin-4-yl)-6-fluoroindoline], in assay [1], the inhibition at 1 µM is 95% and the IC50 is 21 nM. Further, the half-inhibitory concentration (IC50) in assay [2] was 20 nM.

For `Cn1cc(-c2ccc(N3CCC(n4ncc5c(C(F)(F)F)cccc54)CC3)nn2)cn1` [compound 80, 1-(1-(6-(1-methyl-1H-pyrazol-4-yl)pyridazin-3-yl)piperidin-4-yl)-4-(trifluoromethyl)-1H-indazole], in assay [1], the inhibition at 1 µM was 74%. In addition, the results for the IC50 in assay [1] and in assay [2] were 52 nM and 731 nM, respectively.

Regarding `Cn1cc(-c2ccc(N3CCC(n4ncc5ccc(C(F)(F)F)cc54)CC3)nn2)cn1` [compound 81, 1-(1-(6-(1-methyl-1H-pyrazol-4-yl)pyridazin-3-yl)piperidin-4-yl)-6-(trifluoromethyl)-1H-indazole], the inhibition at 1 µM in assay [1] was found to be 96%. In addition, the 50% inhibitory concentration (IC50) in assay [1] turned out to be 8 nM; in assay [2], 15 nM.

`OCCn1cc(-c2ccc(N3CCC(n4ncc5ccc(F)cc54)CC3)nn2)cn1` [compound 82, 2-(4-(6-(4-(6-fluoro-1H-indazo-1-yl)piperidin-1-yl)pyridazin-3-yl)-1H-pyrazol-1-yl)ethanol]: in assay [1], the inhibition at 1 µM was 99% and the IC50 came out at 53 nM. The 50% inhibitory concentration (IC50) in assay [2] amounted to 96 nM.

Turning to `Cn1cc(-c2ccc(N3CCC(n4nc(Cl)c5ccccc54)CC3)nn2)cn1` [compound 83, 3-chloro-1-(1-(6-(1-methyl-1H-pyrazol-4-yl)pyridazin-3-yl)piperidin-4-yl)-1H-indazole], in assay [1], the inhibition at 1 µM was found to be 102% and half-maximal inhibition (IC50) required 6 nM. Further, the IC50 in assay [2] came to 11 nM.

Take `Cc1cnn(-c2ccc(N3CCC(c4noc5ccc(F)cc45)CC3)nn2)c1` [compound 94, 5-fluoro-3-(1-(6-(4-methyl-1H-pyrazol-1-yl)pyridazin-3-yl)piperidin-4-yl)benzo[d]isoxazote]: in assay [1], the inhibition at 1 µM was found to be 96%. The figures for the IC50 in assay [1] and in assay [2] were 12 nM and 40 nM, respectively.

For the compound `OCc1cnn(-c2ccc(N3CCC(c4noc5ccc(F)cc45)CC3)nn2)c1` [compound 95, (1-(6-(4-(5-fluorobenzo[d]isoxazol-3-yl)piperidin-1-yl)pyridazin-3-yl)-1H-pyrazol-4-yl)methanol], in assay [1], the inhibition at 1 µM worked out at 88% and it took 96 nM to reach half-maximal inhibition (IC50). Also, the IC50 in assay [2] is 62 nM.

Turning to `COCc1cnn(-c2ccc(N3CCC(c4noc5ccc(F)cc45)CC3)nn2)c1` [compound 96, 5-fluoro-3-(1-(6-(4-(methoxymethyl)-1H-pyrazol-1-yl)pyridazin-3-yl)piperidin-4-yl)benzo[d]isoxazole], in assay [1], the inhibition at 1 µM was 98% and the 50% inhibitory concentration (IC50) stood at 8 nM. Moreover, the IC50 in assay [2] was determined as 22 nM.

In the case of `CNCc1cnn(-c2ccc(N3CCC(c4noc5ccc(F)cc45)CC3)nn2)c1` [compound 97, 1-(1-(6-(4-(5-fluorobenzo[d]isoxazol-3-yl)piperidin-1-yl)pyridazin-3-yl)-1H-pyrazol-4-yl)-N-methylmethanamine], the inhibition at 1 µM in assay [1] worked out at 11%. The IC50 in assay [2] is above 1000 nM.

Consider `OCCc1cnn(-c2ccc(N3CCC(c4noc5ccc(F)cc45)CC3)nn2)c1` [compound 98, 2-(1-(6-(4-(5-fluorobenzo[d]isoxazol-3-yl)piperidin-1-yl)pyridazin-3-yl)-1H-pyrazol-4-yl)ethanol], for which, in assay [1], the inhibition at 1 µM came to 88% and the midpoint of inhibition, the IC50, lay at 60 nM. In addition, the IC50 in assay [2] was determined as 12 nM.
